According to US20250109156A1, “INDOLE-CONTAINING MACROCYCLIC COMPOUNDS AND USES THEREOF” (JIANGSU AOSAIKANG PHARMACEUTICAL CO., LTD., priority 2022, published 2025):

What was measured:
CDK9-CyclinT1 = CDK9-CyclinT1 (Homo sapiens (Human), UniProt P50750); assay: In vitro CDK9-CyclinT1 enzyme activity assay (TR-FRET); format: biochemical; conditions: Ulight-4E-BP1 peptide, 25° C. 120 minutes
Protocol: Experimental Example 3: In Vitro CDK9/[…] Enzyme Activity Assay
CDK9-CyclinT1 was purchased from CARNA. Ulight-4E-BP1 peptide, Eu-anti-phospho-tyrosine antibody, and 1× detection buffer were purchased from PerkinElmer. High-purity ATP was purchased from Promega. EDTA was purchased from Sigma. Nivo multimode microplate reader (PerkinElmer).
Preparation of kinase buffer: the kinase buffer containing 50 mM HEPES, 1 mM EDTA, 10 mM MgCl2, 0.01% Brij-35, pH 7.4.
2.38 g of HEPES, 58 mg of EDTA, 406 mg of MgCl2, and 20 mg of Brij-35 were added to 200 mL of buffer, and the pH was adjusted to 7.4.
100 μL of 1 M EDTA stock solution was mixed with 0.625 μL of 1× detection buffer and 1725 μL of distilled water to prepare the stop solution.
Enzyme, Ulight-4E-BP1 peptide, ATP, and inhibitors were diluted with the kinase buffer.
The Eu-anti-phospho-tyrosine antibody was diluted to a concentration of 8 nM/L using detection buffer.
The compounds to be tested were 4-fold diluted with a multi-channel pipette to the 8th concentration, i.e., from 400 μM to 24.4 nM, with a final DMSO concentration of 4%. The experiment was set up in duplicate wells. 2.5 μL of each concentration gradient of the inhibitor was added to the microplate, followed by 5 μL of CDK9-CyclinT1 enzyme (2 ng), and 2.5 μL of a mixture of substrate and ATP (8 mM ATP, 50 nM Ulight-4E-BP1 peptide). At this point, the final concentration gradient of the compound was 100 μM diluted to 6.1 nM. The reaction system was reacted at 25° C. for 120 minutes. After the reaction, 5 μL of stop solution was added to each well, and the reaction was continued at 25° C. for 5 minutes. After stopping the reaction, 5 μL of Eu-anti-phospho-tyrosine antibody dilution was added to each well, and the mixture was reacted at 25° C. for 60 minutes. Data were then collected using the PerkinElmer Nivo multimode microplate reader in TR-FRET mode (excitation wavelength: 320 nm, emission wavelength: 665 nm).
Using the equation (Sample−Min)/(Max−Min)*100% to convert the raw data into inhibition rate, the IC50 value may be obtained by curve fitting with four parameters (obtained by “log (inhibitor) vs. response—Variable slope” mode in GraphPad Prism). Table 1 provides the CDK9-CyclinT1 enzymatic inhibitory activity of the compounds of the present disclosure.

HCC70 cells = assay: In vitro HCC70 cell activity assay (CellTiter-Glo proliferation); format: cell-based; conditions: Homo sapiens, 96 h, 4 days incubation
Protocol: Experimental Example 4: In Vitro HCC70 Cell Activity Assay
1640 culture medium, fetal bovine serum, penicillin/streptomycin antibiotics were purchased from WISENT. CellTiter-Glo (cell viability chemiluminescence detection reagent) reagent was purchased from Promega. HCC70 cell line was purchased from Nanjing Cobioer Biosciences Co. Ltd. Nivo multimode microplate reader (PerkinElmer).
The HCC70 cells were seeded in a white 96-well plate, with 80 μL of cell suspension per well, containing 6000 HCC70 cells each. The cell plate was incubated overnight in a CO2 incubator. The compounds to be tested were 3-fold diluted with a multi-channel pipette to the 8th concentration, i.e., diluted from 2 mM to […], and the experiment was set up in duplicate wells. 78 μL of culture medium was added to an intermediate plate, and then 2 μL of gradient diluted compound per well was transferred to the intermediate plate according to the corresponding position. After mixing well, the compound was transferred to the cell plate at 20 μL per well. The concentration of the compound transferred to the cell plate ranged from 10 μM to 1.52 nM. The cell plate was incubated in a CO2 incubator for 4 days. Another cell plate was prepared to measure the signal on the day of drug addition as the maximum value (denoted as Max in the equation below) for data analysis. 25 μL of cell viability chemiluminescence detection reagent was added to each well of this cell plate, and incubated at room temperature for 10 minutes to stabilize the luminescent signal. A multimode microplate reader was used for reading.
25 μL of cell viability chemiluminescence detection reagent was added to each well of this cell plate, and incubated at room temperature for 10 minutes to stabilize the luminescent signal. A multimode microplate reader was used for reading.
Using the equation (Sample−Min)/(Max−Min)*100% to convert the raw data into inhibition rate, the IC50 value may be obtained by curve fitting with four parameters (obtained by “log (inhibitor) vs. response—Variable slope” mode in GraphPad Prism). Table 1 provides the inhibitory activity of the compounds of the present disclosure on the proliferation of HCC70 cells.

[1] = test system: HCC70 breast cancer xenograft (CDX); assay: In vivo efficacy study, HCC70 breast cancer CDX model; set-up: species or system BALB/c nude mice; conditions: for Animal tolerance: BALB/c nude mice, HCC70 CDX
Protocol: Experimental Example 6: In Vivo Efficacy Study
In vivo efficacy experiments were conducted on BALB/c nude mice subcutaneously implanted with human tumor cell line-based xenograft (CDX) derived from HCC70 breast cancer patients.
BALB/c nude mice, female, 6 to 8 weeks old, weighing approximately 19 to 23 g, were maintained in a special pathogen-free environment in individual ventilated cages (6 mice per cage). All cages, bedding, and water were disinfected before use. All animals had free access to a standard certified commercial laboratory diet. A total of 36 mice, purchased from the Laboratory Animal Department of the Shanghai Institute of Planned Parenthood Research (formerly Shanghai SIPPR-BK), were used for the study. Each mouse was injected with 10×10^6 HCC70 cells on the right side of the neck, with an injection volume of 0.2 mL, and the cell suspension was in a 1:1 ratio of PBS and Matrigel. When the average tumor volume reached approximately 179 mm^3, random grouping was performed, and dosing was initiated.
Tumor volume was measured twice a week with a two-dimensional caliper, and the volume was measured in mm^3 and calculated by the following equation: V=0.5 a×b^2, where a and b are the long and short diameters of the tumor, respectively.

CDK9-CyclinT1, sequence (P50750 whole entry): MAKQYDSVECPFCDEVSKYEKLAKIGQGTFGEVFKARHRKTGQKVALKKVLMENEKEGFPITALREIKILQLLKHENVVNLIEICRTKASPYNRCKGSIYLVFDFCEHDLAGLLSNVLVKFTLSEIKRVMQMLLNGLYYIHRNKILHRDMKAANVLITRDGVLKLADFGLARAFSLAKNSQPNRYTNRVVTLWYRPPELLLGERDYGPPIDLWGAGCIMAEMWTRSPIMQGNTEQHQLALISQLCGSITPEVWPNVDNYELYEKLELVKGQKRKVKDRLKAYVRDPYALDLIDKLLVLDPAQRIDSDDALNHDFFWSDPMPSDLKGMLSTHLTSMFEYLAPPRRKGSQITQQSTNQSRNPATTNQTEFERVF
CDK9-CyclinT1, sequence (O60563 whole entry partner): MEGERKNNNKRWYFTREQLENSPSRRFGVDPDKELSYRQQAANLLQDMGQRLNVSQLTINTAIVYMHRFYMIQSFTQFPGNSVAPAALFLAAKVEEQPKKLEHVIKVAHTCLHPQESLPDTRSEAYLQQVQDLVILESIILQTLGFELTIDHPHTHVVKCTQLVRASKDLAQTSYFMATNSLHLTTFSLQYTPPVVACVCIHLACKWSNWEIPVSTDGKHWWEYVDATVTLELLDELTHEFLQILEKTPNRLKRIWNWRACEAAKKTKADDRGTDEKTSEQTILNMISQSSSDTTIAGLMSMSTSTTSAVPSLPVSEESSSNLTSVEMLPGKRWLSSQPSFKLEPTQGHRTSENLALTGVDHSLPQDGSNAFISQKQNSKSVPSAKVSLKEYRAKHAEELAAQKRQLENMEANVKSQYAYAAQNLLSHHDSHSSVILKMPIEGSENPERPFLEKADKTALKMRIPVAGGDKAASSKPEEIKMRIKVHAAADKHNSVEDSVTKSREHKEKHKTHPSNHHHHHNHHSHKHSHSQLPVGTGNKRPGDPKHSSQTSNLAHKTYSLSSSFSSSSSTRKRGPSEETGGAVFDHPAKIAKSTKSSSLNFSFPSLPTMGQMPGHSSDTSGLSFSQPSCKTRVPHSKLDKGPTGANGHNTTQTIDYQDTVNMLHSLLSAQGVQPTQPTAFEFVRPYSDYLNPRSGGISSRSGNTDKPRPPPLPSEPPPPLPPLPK

In the case of `CN1CCCCN2CCCC[C@@H](C2)Nc2ncc(C(F)(F)F)c(n2)-c2c[nH]c3c(P(C)(C)=O)c(ccc23)C1=O` [Compound 3], the IC50 (CDK9-CyclinT1) is reported as over 1000 nM and the IC50 (HCC70 cells) is reported as 1.4 nM.

For `CP(C)(=O)c1c2ccc3c(c[nH]c13)-c1nc(ncc1C(F)(F)F)N[C@H]1CCCN(CCCCCCO2)C1` [Compound 4], the IC50 (CDK9-CyclinT1) was over 1000 nM and the IC50 (HCC70 cells) was 0.6 nM.

`CP(C)(=O)c1c2ccc3c(c[nH]c13)-c1nc(ncc1C(F)(F)F)N[C@H]1CCCN(CCCCNC2=O)C1` [Compound 5] was tested, and the IC50 (CDK9-CyclinT1) was over 1000 nM, the Animal tolerance ([1]; dose 3 mg/kg) was “Good” and the “Tumor volume Day 0” value ([1]; dose 3 mg/kg) was 179 mm^3. The “Tumor volume Day 7” value ([1]; dose 3 mg/kg) was 260 mm^3, the “Tumor volume Day 14” value ([1]; dose 3 mg/kg) was 305 mm^3 and the “Tumor volume Day 21” value ([1]; dose 3 mg/kg) was 230 mm^3. The IC50 (HCC70 cells) was 1 nM.

With `CP(C)(=O)c1c2ccc3c(c[nH]c13)-c1nc(ncc1C(F)(F)F)N[C@H]1CCCCN(CCCCNC2=O)C1` [Compound 6] the IC50 (CDK9-CyclinT1) was over 1000 nM, the Animal tolerance ([1]; dose 3 mg/kg) was “Good” and the “Tumor volume Day 0” value ([1]; dose 3 mg/kg) was 179 mm^3. For the same molecule, the “Tumor volume Day 7” value ([1]; dose 3 mg/kg) was 272 mm^3, the “Tumor volume Day 14” value ([1]; dose 3 mg/kg) was 344 mm^3 and the “Tumor volume Day 21” value ([1]; dose 3 mg/kg) was 403 mm^3. For the same molecule, the IC50 (HCC70 cells) was 1.8 nM.

`CN1CCCCN2CCC[C@@H](C2)Nc2ncc(C(F)(F)F)c(n2)-c2c[nH]c3c(P(C)(C)=O)c(ccc23)C1=O` [Formate of compound 1] was tested, and the IC50 (CDK9-CyclinT1) was 723 nM, the Animal tolerance ([1]; dose 1.5 mg/kg) was “Good” and the “Tumor volume Day 0” value ([1]; dose 1.5 mg/kg) was 179 mm^3. The “Tumor volume Day 7” value ([1]; dose 1.5 mg/kg) was 273 mm^3, the “Tumor volume Day 14” value ([1]; dose 1.5 mg/kg) was 178 mm^3 and the “Tumor volume Day 21” value ([1]; dose 1.5 mg/kg) was 105 mm^3. It also gave an IC50 (HCC70 cells) of under 1.5 nM.
